Among the data in US20100184786A1, “Polar Quinazolines” (Wyeth LLC, priority 2008, published 2010) are IC50 values, retold here.

The target of one test is T1, human LXRβ (Homo sapiens, UniProt P55055).
T1 construct: biotin (biotinylated); made in house; host or cells: E. coli
T1 sequence (P55055 1-460): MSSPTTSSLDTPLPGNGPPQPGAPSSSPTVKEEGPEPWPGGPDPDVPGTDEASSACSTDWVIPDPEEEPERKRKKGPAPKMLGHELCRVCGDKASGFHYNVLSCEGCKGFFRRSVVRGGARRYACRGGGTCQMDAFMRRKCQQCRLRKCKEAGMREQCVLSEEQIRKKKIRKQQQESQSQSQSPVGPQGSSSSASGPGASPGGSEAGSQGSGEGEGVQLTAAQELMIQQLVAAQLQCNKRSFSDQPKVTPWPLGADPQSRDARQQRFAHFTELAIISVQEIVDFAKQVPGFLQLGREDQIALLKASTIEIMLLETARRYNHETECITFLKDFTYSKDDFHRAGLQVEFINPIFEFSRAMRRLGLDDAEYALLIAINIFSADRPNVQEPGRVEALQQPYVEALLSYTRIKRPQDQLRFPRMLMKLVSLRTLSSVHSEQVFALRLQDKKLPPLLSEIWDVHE
As to the kind of experiment: Ligand-binding test procedure for human LXRβ (3H T0901317 tracer, flash plates). As to conditions: competition with 3H T0901317; read-out: hLXRb binding IC50. As to the method:
I. Ligand-Binding Test Procedure for Human LXRβ.
• Buffer: 100 mM KCl, 100 mM TRIS (pH 7.4 at +4° C.), 8.6% glycerol, 0.1 mM PMSF*, 2 mM MTG*, 0.2% CHAPS (* not used in wash buffer) • Tracer: ^3H T0901317 • Receptor source: E. coli extracted from cells expressing biotinylated hLXRβ. Extract was made in a similar buffer as above, but with 50 mM TRIS.
• Washed streptavidin and coated flash plates with wash buffer. • Diluted receptor extract to give Bmax˜4000 cpm and add to the wells. • Wrapped the plates in aluminum foil and stored them at +4° C. overnight.
(§1) • Made a dilution series in DMSO of the test ligands. • Made a 5 nM solution of the radioactive tracer in buffer. • Mixed 2500 diluted tracer with 50 of the test ligand from each concentration of the dilution series. • Washed the receptor-coated flash plates. • Added 2000 per well of the ligand/radiolabel mixture to the receptor-coated flash plates. • Wrapped the plates in aluminum foil and incubate at +4° C. over night.
• Aspirated wells, and washed the flashed plates. Sealed the plate. • Measured the remaining radioactivity in the plate.

A further test deals with T2, human LXRα (Homo sapiens, UniProt Q13133).
T2 construct: biotin (biotinylated); made in house; host or cells: E. coli
T2 sequence (Q13133 1-447): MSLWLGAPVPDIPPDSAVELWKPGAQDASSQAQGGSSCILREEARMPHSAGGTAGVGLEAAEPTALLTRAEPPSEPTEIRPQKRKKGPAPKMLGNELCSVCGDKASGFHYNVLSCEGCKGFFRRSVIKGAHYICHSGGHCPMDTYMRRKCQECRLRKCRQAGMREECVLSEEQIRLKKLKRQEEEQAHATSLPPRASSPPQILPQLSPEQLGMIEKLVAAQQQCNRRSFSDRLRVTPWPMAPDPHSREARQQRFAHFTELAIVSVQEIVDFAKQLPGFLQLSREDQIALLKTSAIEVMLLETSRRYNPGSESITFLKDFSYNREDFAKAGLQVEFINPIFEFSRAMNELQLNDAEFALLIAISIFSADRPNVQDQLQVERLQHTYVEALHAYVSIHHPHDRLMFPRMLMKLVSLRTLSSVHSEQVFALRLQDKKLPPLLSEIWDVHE
As to the kind of experiment: Ligand-binding test procedure for human LXRα (3H T0901317 tracer, flash plates). As to conditions: competition with 3H T0901317; read-out: hLXRa binding IC50. On the procedure:
II. Ligand-Binding Test Procedure for Human LXRa.
• Buffer: 100 mM KCl, 100 mM TRIS (pH 7.4 at +4° C.), 8.6% glycerol, 0.1 mM PMSF*, 2 mM MTG*, 0.2% CHAPS (* not used in wash buffer) • Tracer: ^3H T0901317 • Receptor source: E. coli extract from cells expressing biotinylated hLXRα. Extract was made in a similar buffer as above, but with 50 mM TRIS.
• Washed streptavidin and coated flash plates with wash buffer. • Diluted receptor extract to give Bmax˜4000 cpm and add to the wells. • Wrapped the plates in aluminum foil and stored them at +4° C. over night.
as §1
• Aspirated wells, and wash the flashed plates. Sealed the plate. • Measured the remaining radioactivity in the plate.

`O=C(O)CCCCS(=O)(=O)c1cccc(Oc2ccc(F)c(-c3ncnc4c(Cl)cccc34)c2)c1` [Example 56, 5-({3-[3-(8-chloroquinazolin-4-yl)-4-fluorophenoxy]phenyl}sulfonyl)pentanoic acid]: the IC50 at human LXRβ was 3430 nM.
`CS(=O)(=O)c1cc(Oc2ccc(Cl)c(-c3ncnc4c(Cl)cccc34)c2)ccc1C(N)=O` [Example 6, 4-[4-chloro-3-(8-chloroquinazolin-4-yl)phenoxy]-2-(methylsulfonyl)benzamide]: the IC50 on human LXRα came out at 3840 nM; on human LXRβ it was 1260 nM.
In the case of `O=C(O)CCCS(=O)(=O)c1cccc(Oc2ccc(F)c(-c3ncnc4c(Cl)cccc34)c2)c1` [Example 57, 4-({3-[3-(8-chloroquinazolin-4-yl)-4-fluorophenoxy]phenyl}sulfonyl)butanoic acid], the IC50 at human LXRβ turned out to be 4210 nM.
For `Cc1nc(-c2cc(Oc3cccc(S(=O)(=O)CCCC#N)c3)ccc2Cl)c2cccc(C(F)(F)F)c2n1` [Example 59, 4-[(3-{4-chloro-3-[2-methyl-8-(trifluoromethyl)quinazolin-4-yl]phenoxy}phenyl)sulfonyl]-butanenitrile], the IC50 is 2260 nM on human LXRα and 150 nM on human LXRβ.
On to `CS(=O)(=O)c1cc(Oc2ccc(F)c(-c3ncnc4c(Cl)cccc34)c2)ccc1C#N` [Example 41, 4-[3-(8-chloroquinazolin-4-yl)-4-fluorophenoxy]-2-(methylsulfonyl)benzonitrile], for which the IC50 on human LXRβ was 1060 nM.
Turning to `NC(=O)CCCS(=O)(=O)c1cccc(Oc2ccc(F)c(-c3ncnc4c(Cl)cccc34)c2)c1` [Example 54, 4-({3-[3-(8-chloroquinazolin-4-yl)-4-fluorophenoxy]phenyl}sulfonyl)butanamide], the IC50 was 6540 nM at human LXRα and 584 nM at human LXRβ.
For `CS(=O)(=O)c1cc(Oc2ccc(Cl)c(-c3ncnc4c(C(F)(F)F)cccc34)c2)ccc1C#N` [Example 2, 4-{4-chloro-3-[8-(trifluoromethyl)quinazolin-4-yl]phenoxy}-2-(methylsulfonyl)benzonitrile] the same measures were 1060 nM and 152 nM.
The like results for `NCCCCS(=O)(=O)c1cccc(Oc2ccc(F)c(-c3ncnc4c(C(F)(F)F)cccc34)c2)c1` [Example 35, 4-[(3-{4-fluoro-3-[8-(trifluoromethyl)quinazolin-4-yl]phenoxy}phenyl)sulfonyl]butan-1-amine] were, in that order, 9420 nM and 584 nM.
The like results for `CS(=O)(=O)c1cc(Oc2ccc(Cl)c(-c3ncnc4c(Cl)cccc34)c2)ccc1C#N` [Example 1, 4-[4-chloro-3-(8-chloroquinazolin-4-yl)phenoxy]-2-(methylsulfonyl)benzonitrile] were, in that order, 3130 nM and 329 nM.
With `NCCCCS(=O)(=O)c1cccc(Oc2ccc(F)c(-c3ncnc4c(Cl)cccc34)c2)c1` [Example 45, 4-({3-[3-(8-chloroquinazolin-4-yl)-4-fluorophenoxy]phenyl}sulfonyl)butan-1-amine], the IC50 at human LXRα amounted to 11500 nM; on human LXRβ, 1880 nM.
For `CS(=O)(=O)c1cc(Oc2ccc(Cl)c(-c3ncnc4c(C(F)(F)F)cccc34)c2)ccc1C(N)=O` [Example 7, 4-{4-chloro-3-[8-(trifluoromethyl)quinazolin-4-yl]phenoxy}-2-(methylsulfonyl)benzamide] the same measures were 986 nM and 288 nM.
The like results for `CS(=O)(=O)c1cc(Oc2ccc(F)c(-c3ncnc4c(Cl)cccc34)c2)ccc1C(N)=O` [Example 42, 4-[3-(8-chloroquinazolin-4-yl)-4-fluorophenoxy]-2-(methylsulfonyl)benzamide] were, in that order, 10900 nM and 4900 nM.
The like results for `CS(=O)(=O)c1cc(Oc2ccc(F)c(-c3ncnc4c(C(F)(F)F)cccc34)c2)ccc1C#N` [Example 38, 4-{4-fluoro-3-[8-(trifluoromethyl)quinazolin-4-yl]phenoxy}-2-(methylsulfonyl)benzonitrile] were, in that order, 4100 nM and 506 nM.
On to `NC(=O)CCCCS(=O)(=O)c1cccc(Oc2ccc(F)c(-c3ncnc4c(C(F)(F)F)cccc34)c2)c1` [Example 33, 5-[(3-{4-fluoro-3-[8-(trifluoromethyl)quinazolin-4-yl]phenoxy}phenyl)sulfonyl]pentanamide], for which the 50% inhibitory concentration (IC50) at human LXRα is 1350 nM; on human LXRβ it was 130 nM.
For the compound `Cc1nc(-c2cc(Oc3cccc(S(=O)(=O)CCCCNS(C)(=O)=O)c3)ccc2Cl)c2cccc(C(F)(F)F)c2n1` [Example 63, N-{4-[(3-{4-chloro-3-[2-methyl-8-(trifluoromethyl)quinazolin-4-yl]phenoxy}phenyl)sulfonyl]-butyl}methanesulfonamide], the IC50 on human LXRα worked out at 4540 nM; at human LXRβ, 326 nM.
In the case of `CN(CCCCS(=O)(=O)c1cccc(Oc2ccc(F)c(-c3ncnc4c(Cl)cccc34)c2)c1)S(C)(=O)=O` [Example 48, N-[4-({3-[3-(8-chloroquinazolin-4-yl)-4-fluorophenoxy]phenyl}sulfonyl)butyl]-N-methylmethanesulfonamide], at human LXRβ, the IC50 was determined as 1020 nM.
As for `CS(=O)(=O)NCCCS(=O)(=O)c1cccc(Oc2ccc(F)c(-c3ncnc4c(Cl)cccc34)c2)c1` [Example 50, N-[3-({3-[3-(8-chloroquinazolin-4-yl)-4-fluorophenoxy]phenyl}sulfonyl)propyl]methane-sulfonamide], the IC50 worked out at 6350 nM at human LXRα and 471 nM at human LXRβ.
The like results for `NC(=O)CCCS(=O)(=O)c1cccc(Oc2ccc(F)c(-c3ncnc4c(C(F)(F)F)cccc34)c2)c1` [Example 26, 4-[(3-{4-fluoro-3-[8-(trifluoromethyl)quinazolin-4-yl]phenoxy}phenyl)sulfonyl]butanamide] were, in that order, 2480 nM and 184 nM.
For `Cc1nc(-c2cc(Oc3cccc(S(=O)(=O)CCCNS(C)(=O)=O)c3)ccc2Cl)c2cccc(C(F)(F)F)c2n1` [Example 62, N-{3-[(3-{4-chloro-3-[2-methyl-8-(trifluoromethyl)quinazolin-4-yl]phenoxy}phenyl)sulfonyl]-propyl}methanesulfonamide] the same measures were 7040 nM and 343 nM.
The like results for `CS(=O)(=O)NCCCS(=O)(=O)c1cccc(Oc2ccc(F)c(-c3ncnc4c(C(F)(F)F)cccc34)c2)c1` [Example 29, N-{3-[(3-{4-fluoro-3-[8-(trifluoromethyl)quinazolin-4-yl]phenoxy}phenyl)sulfonyl]propyl}-methanesulfonamide] were, in that order, 1330 nM and 157 nM.
For the compound `CS(=O)(=O)NCCCCS(=O)(=O)c1cccc(Oc2ccc(F)c(-c3ncnc4c(C(F)(F)F)cccc34)c2)c1` [Example 36, N-{4-[(3-{4-fluoro-3-[8-(trifluoromethyl)quinazolin-4-yl]phenoxy}phenyl)sulfonyl]butyl]methanesulfonamide], the results for the half-maximal inhibitory concentration (IC50) at human LXRα and on human LXRβ were 2730 nM and 221 nM, respectively.
Turning to `CN(CCCS(=O)(=O)c1cccc(Oc2ccc(F)c(-c3ncnc4c(Cl)cccc34)c2)c1)S(C)(=O)=O` [Example 49, N-[3-({3-[3-(8-chloroquinazolin-4-yl)-4-fluorophenoxy]phenyl}sulfonyl)propyl]-N-methylmethanesulfonamide], the IC50 on human LXRβ worked out at 1990 nM.
Still for that read-out and setting: under `CNCCCCS(=O)(=O)c1cccc(Oc2ccc(F)c(-c3ncnc4c(Cl)cccc34)c2)c1` [Example 43, 4-({3-[3-(8-chloroquinazolin-4-yl)-4-fluorophenoxy]phenyl}sulfonyl)-N-methylbutan-1-amine] stands 3590 nM.

What is called IC50 is the point on the concentration scale where inhibition reaches its midpoint.
